# Reference: PMC10818515, “Improvement of the Thermal Stability and Aqueous Solubility of Three Matrine Salts Assembled by the Similar Structure Salt Formers” (Pharmaceuticals, 2024)
# Where two headings read alike, the source gives them in different places.
# Assay: Equilibrium solubility by the shake flask method
# Type: physicochemical
# Conditions: 37 °C; for solubility thermodynamic at 72 h: thermodynamic from solid, read-out: Equilibrium solubility, Concentration; for solubility thermodynamic at 72 h / Equilibrium solubility, Concentration: n = 3
# Method: Aqueous solubility is one of the key factors affecting the bioavailability of drugs. […] Generally, the charged part has high aqueous solubility. […] The concentration of the samples was analyzed through high-performance liquid chromatography. The mobile phase consisted of methanol, acetonitrile, and phosphate buffer (15:15:70).
Structure (SMILES),"solubility thermodynamic at 72 h (aqueous buffer, pH = 4.5 acetic acid buffer) [mg/mL]","solubility thermodynamic at 72 h (aqueous buffer, pH = 6.8 phosphate buffer) [mg/mL]","solubility thermodynamic at 72 h (simulated gastric fluid, pH = 1.2 hydrochloric acid solution) [mg/mL]",solubility thermodynamic at 72 h (H2O (purified water)) [mg/mL],"Equilibrium solubility, Concentration (H2O (purified water)) [mg/mL]",Solubility relative to that of MAT (acetate buffer (pH 4.5)) [times],Solubility relative to that of MAT (hydrochloric acid solution (pH 1.2)) [times],"Equilibrium solubility, Concentration (pH = 1.2 hydrochloric acid solution) [mg/mL]","Equilibrium solubility, Concentration (pH = 4.5 acetic acid buffer) [mg/mL]","Equilibrium solubility, Concentration (pH = 6.8 phosphate buffer) [mg/mL]",Solubility relative to that of MAT (phosphate buffer (pH 6.8)) [times],Solubility relative to that of MAT (pure water) [times]
"O=C1CCC[C@@H]2[C@H]3CCCN4CCC[C@@H](CN12)[C@@H]34 [MAT, Matrine]",91.8 ± 2.31,64.9 ± 1.13,90.9 ± 1.01,65.36 ± 0.53,,,,,,,,
"O=C(O)c1c(O)cccc1O.O=C1CCCC2C3CCCN4CCCC(CN12)C34 (stereo not drawn) [MAT-26DHB, MAT-2,6-dihydroxybenzoic acid]",,,,,7.42 ± 0.45,0.09,0.14,13.08 ± 1.52,8.23 ± 0.10,5.71 ± 0.75,0.09,0.11
